Data taken from patent US20250144067A1, “PERSONALIZED STARVATION THERAPY FOR CANCER” (Faeth Therapeutics, Inc., priority 2021, published 2025).
Counter-ions that a name gives are not always drawn. Like-named read-outs stand apart in the source and are kept apart here. Peptide text beside a SMILES is read from it.

Tests used:
[1] = test system: NCI-H292 lung cancer cells; test: FDA drug screening, complete media vs cholesterol-free media without statin (TABLE 1); assay type: cell-based, human
[2] = test system: NCI-H292 lung cancer cells; test: FDA drug screening, complete media vs cholesterol-free media with simvastatin (TABLE 2); assay type: cell-based, human
[3] = Complete minus Cholesterol-free, […]
[4] = NCI-H292 cells, FDA library drug in cholesterol-free media with simvastatin 0.04 μM
[5] = NCI-H292 cells, FDA library drug in complete media
[6] = NCI-H292 cells, cholesterol-free media without statin
[7] = complete vs cholesterol-free media, greater than 0 enhanced anti-cancer activity, about 0 neutral, below 0 antagonists
[8] = complete media minus cholesterol-free media + simvastatin, >0 enhanced anti-cancer activity, about 0 neutral, <0 antagonist
[9] = Complete minus Cholesterol-free, >0 enhanced anti-cancer activity, about 0 neutral, <0 antagonist
[10] = complete media vs cholesterol-free media + simvastatin (0.04 μM), >0 enhanced anti-cancer activity, about 0 neutral, <0 antagonist
[11] = NCI-H292 cells, FDA drug library screen, cholesterol-free media with simvastatin 0.04 μM
[12] = NCI-H292 cells, FDA drug library screen, complete media
[13] = NCI-H292 cells, cholesterol-free media without statin, FDA drug library screen
[14] = NCI-H292 cells, complete media, FDA drug library screen
[15] = NCI-H292 cells, cholesterol-free media with simvastatin 0.04 μM, […]
[16] = NCI-H292 cells, complete media, […]
[17] = complete media minus cholesterol-free media + simvastatin, […]
[18] = NCI-H292 cells, drug in cholesterol-free media with simvastatin 0.04 μM
[19] = NCI-H292 cells, drug in complete media

Cc1cc(N2CCN([C@@H]3CN[C@H](C(=O)N4CCSC4)C3)CC2)n(-c2ccccc2)n1 [Teneligliptin (hydrobromide)]
Difference [1, 3]: −0.56 | Cholesterol-free ([1]; NCI-H292 cells in cholesterol-free media without statin): 1.45 | Complete ([1]; NCI-H292 cells in complete media): 0.8858 | Cholesterol-free media + simvastatin (0.04 μM) [2, 4]: 1.564 | Complete Media [2, 5]: 1.115 | Difference ([2]; complete media vs cholesterol-free media + simvastatin (0.04 μM), […]): −0.45

CCCN1CCCC[C@H]1C(=O)Nc1c(C)cccc1C [Ropivacaine (hydrochloride monohydrate)]
Cholesterol-free [1, 6]: 0.9717 | Complete ([1]; NCI-H292 cells, complete media): 0.6061 | Difference [1, 7]: −0.37 | Cholesterol-free media + simvastatin (0.04 μM) ([2]; NCI-H292 cells, cholesterol-free media with simvastatin 0.04 μM, cell growth value in FDA drug screen): 1.378 | Complete Media ([2]; NCI-H292 cells, complete media, cell growth value in FDA drug screen): 1.433 | Difference [2, 8]: 0.05

NC[C@H]1O[C@H](O[C@H]2[C@H](O[C@@H]3O[C@H](CO)[C@@H](O)[C@H]3O)[C@@H](O)[C@H](N)C[C@@H]2N)[C@H](N)[C@@H](O)[C@@H]1O.O=S(=O)(O)O [Ribostamycin (sulfate)]
Difference [1, 9]: −0.22 | Cholesterol-free [1, 6]: 1.714 | Complete ([1]; NCI-H292 cells, complete media): 1.495 | Cholesterol-free media + simvastatin (0.04 μM) [2, 4]: 1.833 | Complete Media [2, 5]: 1.478 | Difference [2, 10]: −0.36

Cc1cnc(C(=O)O)c[n+]1[O-] [Acipimox]
Cholesterol-free [1, 6]: 1.354 | Complete ([1]; NCI-H292 cells, complete media): 1.008 | Difference [1, 7]: −0.35 | Cholesterol-free media + simvastatin (0.04 μM) [2, 11]: 1.352 | Complete Media [2, 12]: 1.26 | Difference [2, 10]: −0.09

C[N+](C)(CC(=O)Nc1ccccc1)CC(=O)Nc1ccccc1.[Cl-] [Carcainium (chloride)]
Difference [1, 3]: 0.01 | Cholesterol-free [1, 13]: 0.9985 | Complete [1, 14]: 1.004 | Cholesterol-free media + simvastatin (0.04 μM) [2, 15]: 1.019 | Complete Media [2, 16]: 1.155 | Difference [2, 17]: 0.14

O=C1O[C@H](CO)[C@@H](O)[C@H](O)[C@H]1O [D-(+)-Glucono-1,5-lactone]
Cholesterol-free [1, 6]: 1.227 | Complete ([1]; NCI-H292 cells, complete media): 0.906 | Difference [1, 7]: −0.32 | Cholesterol-free media + simvastatin (0.04 μM) [2, 11]: 1.196 | Complete Media [2, 12]: 1.644 | Difference [2, 8]: 0.45

Bazedoxifene (acetate)
Difference [1, 9]: −0.29 | Complete ([1]; NCI-H292 cells, complete media): 0.8636 | Cholesterol-free media + simvastatin (0.04 μM) [2, 11]: 0.4477 | Complete Media [2, 12]: 0.8485 | Difference [2, 8]: 0.40

NS(=O)(=O)c1cc(C2(O)NC(=O)c3ccccc32)ccc1Cl (centres unmarked) [Chlorthalidone]
Difference [1, 9]: −0.22 | Cholesterol-free [1, 6]: 1.209 | Complete ([1]; NCI-H292 cells, complete media): 0.9927 | Cholesterol-free media + simvastatin (0.04 μM) [2, 18]: 1.215 | Complete Media [2, 19]: 0.9907 | Difference [2, 10]: −0.22

C=C[C@@H]1C[C@]1(NC(=O)[C@@H]1C[C@@H]2CN1C(=O)[C@H](C(C)(C)C)NC(=O)O[C@@H]1C[C@H]1CCCCCc1nc3ccc(OC)cc3nc1O2)C(=O)NS(=O)(=O)C1CC1.O [Grazoprevir]
Difference [1, 3]: −0.09 | Cholesterol-free ([1]; NCI-H292 cells, FDA drug library screen, cholesterol-free media without statin): 1.057 | Complete [1, 12]: 0.9626 | Cholesterol-free media + simvastatin (0.04 μM) [2, 15]: 0.9215 | Complete Media [2, 16]: 0.9383 | Difference [2, 17]: 0.02

CC(C)Cn1cnc2c(N)nc3ccccc3c21 [Imiquimod (hydrochloride)]
Cholesterol-free [1]: 0.8815 | Complete [1]: 1.16 | Difference [1]: 0.28 | Cholesterol-free media + simvastatin (0.04 μM) [2]: 1.323 | Complete Media [2]: 1.16 | Difference [2]: −0.16

NCCS(=O)(=O)O [Taurine]
Cholesterol-free [1, 13]: 1.192 | Complete [1, 14]: 1.309 | Difference ([1]; complete vs cholesterol-free media, >0 enhanced anti-cancer activity, about 0 neutral, <0 antagonist): 0.12 | Cholesterol-free media + simvastatin (0.04 μM) [2, 4]: 1.971 | Complete Media [2, 5]: 1.363 | Difference [2, 10]: −0.61

COC(=O)[C@H](Cc1ccccc1)NC(=O)[C@@H](N)CC(=O)O [Aspartame] (HELM PEPTIDE1{D.F.[CO[*:1]]}$$$$V2.0)
Difference [1, 9]: −0.06 | Cholesterol-free [1, 13]: 1.044 | Complete [1, 14]: 0.9887 | Cholesterol-free media + simvastatin (0.04 μM) [2, 18]: 1.165 | Complete Media [2, 19]: 0.9998 | Difference [2, 10]: −0.17

NC(=NCc1ccccc1)NC(=O)c1nc(Cl)c(N)nc1N [Benzamil (hydrochloride)]
Difference [1, 9]: −0.30 | Cholesterol-free [1, 6]: 0.9643 | Complete ([1]; NCI-H292 cells, complete media): 0.6686 | Cholesterol-free media + simvastatin (0.04 μM) ([2]; NCI-H292 cells, cholesterol-free media with simvastatin 0.04 μM, FDA drug library screen (TABLE 2)): 0.8193 | Complete Media ([2]; NCI-H292 cells, complete media, FDA drug library screen (TABLE 2)): 0.8118 | Difference ([2]; complete media minus cholesterol-free media + simvastatin (0.04 μM), >0 enhanced anti-cancer activity, about 0 neutral, <0 antagonist): −0.01
